Data as given in patent US8952024B2, “Herbicidal pyrimidone derivatives” (E I du Pont de Nemours and Company, priority 2009, dated 2015).

Tests used:
Format in all cases: in vivo
[1] = test system: Italian ryegrass (Lolium multiflorum); assay: Test B pre-/postemergence plant response
In short: (§1)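 Compound in solvent + surfactant applied pre-em (loam/sand) or post-em (plants 2–18 cm, peat medium); greenhouse hold 13–15 days; visual 0–100 control score.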

[2] = test system: bermudagrass (Cynodon dactylon); assay: Test B pre-/postemergence plant response
In short: as §1

[3] = test system: blackgrass (Alopecurus myosuroides); assay: Test B pre-/postemergence plant response
In short: as §1

[4] = test system: corn (Zea mays); assay: Test B pre-/postemergence plant response
In short: as §1

[5] = test system: downy bromegrass (Bromus tectorum); assay: Test B pre-/postemergence plant response
In short: as §1

[6] = test system: giant foxtail (Setaria faberii); assay: Test B pre-/postemergence plant response
In short: as §1

[7] = test system: goosegrass (Eleusine indica); assay: Test B pre-/postemergence plant response
In short: as §1

[8] = test system: green foxtail (Setaria viridis); assay: Test B pre-/postemergence plant response
In short: as §1

[9] = test system: johnsongrass (Sorghum halepense); assay: Test B pre-/postemergence plant response
In short: as §1

[10] = test system: morningglory (Ipomoea coccinea); assay: Test B pre-/postemergence plant response
In short: as §1

[11] = test system: pigweed (Amaranthus retroflexus); assay: Test B pre-/postemergence plant response
In short: as §1

[12] = test system: ragweed (common ragweed, Ambrosia elatior); assay: Test B pre-/postemergence plant response
In short: as §1

[13] = test system: soybean (Glycine max); assay: Test B pre-/postemergence plant response
In short: as §1

[14] = test system: velvetleaf (Abutilon theophrasti); assay: Test B pre-/postemergence plant response
In short: as §1

[15] = test system: wheat (Triticum aestivum); assay: Test B pre-/postemergence plant response
In short: as §1

[16] = test system: canarygrass (Phalaris minor); assay: Test B postemergence plant response; conditions: Postemergence
In short: (§2)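 Plants at the 1- to 4-leaf stage (2 to 18 cm tall), grown in pots of peat moss/vermiculite medium with wetting agent and starter nutrients, received postemergence applications of test chemicals. After 13 to 15 days in a greenhouse, injury was rated visually against untreated controls on a 0 (no effect) to 100 (complete control) scale.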

[17] = test system: chickweed (Stellaria media); assay: Test B postemergence plant response; conditions: Postemergence
In short: as §2

[18] = test system: winter barley (Hordeum vulgare); assay: Test B postemergence plant response; conditions: Postemergence
In short: as §2

[19] = Postemergence, 31 g ai/ha, 0 to 100 scale (0 no effect, 100 complete control)
[20] = Postemergence, 250 g ai/ha, scale 0 to 100 (0 no effect, 100 complete control), 13 to 15 days
[21] = Postemergence, 62 g ai/ha, scale 0 to 100 (0 no effect, 100 complete control)
[22] = Preemergence, 31 g ai/ha, scale 0 to 100 (0 no effect, 100 complete control)
[23] = Preemergence, 62 g ai/ha, scale 0 to 100, 0 no effect, 100 complete control
[24] = Preemergence, 125 g ai/ha, scale 0 to 100, 0 no effect, 100 complete control
[25] = Preemergence, 250 g ai/ha, 0 to 100 scale
[26] = Postemergence, 125 g ai/ha, scale 0 to 100 (0 no effect, 100 complete control)
[27] = 31 g ai/ha, 0 to 100 scale (0 no effect, 100 complete control)
[28] = 125 g ai/ha, scale 0 to 100 (0 no effect, 100 complete control)
[29] = 250 g ai/ha, scale 0 to 100 (0 no effect, 100 complete control), 13 to 15 days
[30] = 62 g ai/ha, scale 0 to 100 (0 no effect, 100 complete control)

CCc1cccc(-n2c(-c3ccccc3)ncc(C(=O)C3=C(O)CCCC3=O)c2=O)c1 [Compound 220]
Plant response rating, Ryegrass, Italian [1, 19]: 5 | Plant response rating, Ryegrass, Italian [1, 20]: 60 | Plant response rating, Ryegrass, Italian [1, 21]: 5 | Plant response rating, Ryegrass, Italian [1, 22]: 0 | Plant response rating, Ryegrass, Italian [1, 23]: 0 | Plant response rating, Ryegrass, Italian [1, 24]: 0 | Ryegrass, Italian plant response rating [1, 25]: 0 | Plant response rating, Bermudagrass [2, 19]: 80 | Plant response rating, Bermudagrass [2, 26]: 98 | Plant response rating, Bermudagrass [2, 20]: 100 | Plant response rating, Bermudagrass [2, 21]: 95 | Plant response rating, Bermudagrass [2, 22]: 80 | Plant response rating, Bermudagrass [2, 23]: 98 | Plant response rating, Bermudagrass [2, 24]: 98 | Bermudagrass plant response rating ([2]; Preemergence, 250 g ai/ha, 0 to 100 scale, 0 no effect, 100 complete control): 100 | Plant response rating, Blackgrass [3, 19]: 10 | Plant response rating, Blackgrass [3, 26]: 30 | Plant response rating, Blackgrass [3, 20]: 40 | Plant response rating, Blackgrass [3, 21]: 20 | Plant response rating, Blackgrass [3, 22]: 10 | Plant response rating, Blackgrass [3, 23]: 20 | Plant response rating, Blackgrass [3, 24]: 20 | Blackgrass plant response rating [3, 25]: 35 | Plant response rating, Corn [4, 19]: 25 | Plant response rating, Corn [4, 26]: 55 | Plant response rating, Corn [4, 20]: 75 | Plant response rating, Corn [4, 21]: 50 | Plant response rating, Corn [4, 22]: 0 | Plant response rating, Corn [4, 23]: 0 | Plant response rating, Corn [4, 24]: 0 | Corn plant response rating [4, 25]: 0 | Plant response rating, Bromegrass, Downy [5, 19]: 10 | Plant response rating, Bromegrass, Downy [5, 26]: 15 | Plant response rating, Bromegrass, Downy [5, 20]: 30 | Plant response rating, Bromegrass, Downy [5, 21]: 10 | Plant response rating, Bromegrass, Downy [5, 22]: 0 | Plant response rating, Bromegrass, Downy [5, 23]: 0 | Plant response rating, Bromegrass, Downy [5, 24]: 0 | Bromegrass, Downy plant response rating [5, 25]: 5 | Plant response rating, Foxtail, Giant [6, 19]: 30 | Plant response rating, Foxtail, Giant [6, 26]: 55 | Plant response rating, Foxtail, Giant [6, 20]: 95 | Plant response rating, Foxtail, Giant [6, 21]: 50 | Plant response rating, Foxtail, Giant [6, 22]: 0 | Plant response rating, Foxtail, Giant [6, 23]: 0 | Plant response rating, Foxtail, Giant [6, 24]: 0 | Foxtail, Giant plant response rating [6, 25]: 75 | Plant response rating, Goosegrass [7, 19]: 80 | Plant response rating, Goosegrass [7, 26]: 85 | Plant response rating, Goosegrass [7, 20]: 90 | Plant response rating, Goosegrass [7, 21]: 85 | Plant response rating, Goosegrass [7, 22]: 65 | Plant response rating, Goosegrass [7, 23]: 95 | Plant response rating, Goosegrass [7, 24]: 98 | Goosegrass plant response rating [7, 25]: 100 | Plant response rating, Foxtail, Green [8, 19]: 60 | Plant response rating, Foxtail, Green [8, 26]: 80 | Plant response rating, Foxtail, Green [8, 20]: 90 | Plant response rating, Foxtail, Green [8, 21]: 65 | Plant response rating, Foxtail, Green [8, 22]: 80 | Plant response rating, Foxtail, Green [8, 23]: 90 | Foxtail, Green plant response rating [8, 25]: 100 | Plant response rating, Johnsongrass [9, 19]: 60 | Plant response rating, Johnsongrass [9, 26]: 80 | Plant response rating, Johnsongrass [9, 20]: 90 | Plant response rating, Johnsongrass [9, 21]: 65 | Plant response rating, Johnsongrass [9, 22]: 0 | Plant response rating, Johnsongrass [9, 23]: 0 | Plant response rating, Johnsongrass [9, 24]: 0 | Johnsongrass plant response rating [9, 25]: 80 | Plant response rating, Morningglory [10, 19]: 65 | Plant response rating, Morningglory [10, 26]: 98 | Plant response rating, Morningglory [10, 20]: 100 | Plant response rating, Morningglory [10, 21]: 65 | Plant response rating, Morningglory [10, 22]: 0 | Plant response rating, Morningglory [10, 23]: 0 | Plant response rating, Morningglory [10, 24]: 0 | Morningglory plant response rating [10, 25]: 90 | Plant response rating, Pigweed [11, 19]: 95 | Plant response rating, Pigweed [11, 20]: 100 | Plant response rating, Pigweed [11, 21]: 100 | Plant response rating, Pigweed [11, 22]: 100 | Plant response rating, Pigweed [11, 23]: 100 | Plant response rating, Pigweed [11, 24]: 100 | Pigweed plant response rating [11, 25]: 100 | Plant response rating, Ragweed [12, 19]: 90 | Plant response rating, Ragweed [12, 20]: 98 | Plant response rating, Ragweed [12, 21]: 95 | Plant response rating, Ragweed [12, 22]: 15 | Plant response rating, Ragweed [12, 23]: 60 | Plant response rating, Ragweed [12, 24]: 80 | Ragweed plant response rating [12, 25]: 95 | Plant response rating, Soybean [13, 19]: 80 | Plant response rating, Soybean [13, 20]: 100 | Plant response rating, Soybean [13, 21]: 85 | Plant response rating, Soybean [13, 23]: 0 | Plant response rating, Soybean [13, 24]: 0 | Soybean plant response rating [13, 25]: 75 | Plant response rating, Velvetleaf [14, 19]: 80 | Plant response rating, Velvetleaf [14, 20]: 100 | Plant response rating, Velvetleaf [14, 21]: 90 | Plant response rating, Velvetleaf [14, 22]: 45 | Plant response rating, Velvetleaf [14, 23]: 70 | Plant response rating, Velvetleaf [14, 24]: 90 | Velvetleaf plant response rating [14, 25]: 100 | Plant response rating, Wheat [15, 19]: 0 | Plant response rating, Wheat [15, 20]: 15 | Plant response rating, Wheat [15, 21]: 0 | Plant response rating, Wheat [15, 22]: 0 | Plant response rating, Wheat [15, 23]: 0 | Plant response rating, Wheat [15, 24]: 0 | Wheat plant response rating [15, 25]: 5 | Plant response rating, Canarygrass [16, 27]: 10 | Plant response rating, Canarygrass [16, 28]: 10 | Plant response rating, Canarygrass [16, 29]: 30 | Plant response rating, Canarygrass [16, 30]: 10 | Plant response rating, Chickweed [17, 27]: 95 | Plant response rating, Chickweed [17, 28]: 98 | Plant response rating, Chickweed [17, 29]: 100 | Plant response rating, Chickweed [17, 30]: 95 | Plant response rating, Barley [18, 27]: 10 | Plant response rating, Barley [18, 28]: 10 | Plant response rating, Barley [18, 29]: 15 | Plant response rating, Barley [18, 30]: 10
